The nature of this data set: D90 particle size of atovaquone by Malvern Mastersizer. The format is physicochemical. As for the experimental part: […]

The mark [1] stands for this setting: Run 1, stir time 1 min, 30 mg in 900 mL purified water, polysorbate 80, 10 min sonication, 400 rpm.

SMILES strings stand for the structures.

Turning to `O=C1C(O)=C([C@H]2CC[C@H](c3ccc(Cl)cc3)CC2)C(=O)c2ccccc21` [Example 5, trans-2-[4-(4-chlorophenyl)cyclohexyl]-3-hydroxy-1,4-naphthalenedione], the D90 particle size reads like this: under setting [1], 7.971 microns; (Run 1, stir time 2 min) 7.949 microns; (Run 1, stir time 3 min) 8.215 microns; (Run 1, stir time 4 min) 8.276 microns; (Run 1, stir time 5 min) 7.948 microns; (Run 2, stir time 1 min) 7.726 microns. Besides, the D90 particle size runs as follows: (Run 2, stir time 2 min) 7.723 microns; (Run 2, stir time 3 min) 7.726 microns; (Run 2, stir time 4 min) 7.727 microns; (Run 2, stir time 5 min) 7.723 microns; (Run 3, stir time 1 min) 7.978 microns; (Run 3, stir time 2 min) 7.974 microns. This compound returned a D90 particle size (Run 3, stir time 3 min) of 7.977 microns; a D90 particle size (Run 3, stir time 4 min) of 7.979 microns; a D90 particle size (Run 3, stir time 5 min) of 7.973 microns.
Take `O=C1C(O)=C([C@H]2CC[C@H](c3ccc(Cl)cc3)CC2)C(=O)c2ccccc21` [Example 1, trans-2-[4-(4-chlorophenyl)cyclohexyl]-3-hydroxy-1,4-naphthalenedione]: the D90 particle size was 5.088 microns under setting [1]; 5.089 microns (Run 1, stir time 2 min); 5.090 microns (Run 1, stir time 3 min); 5.088 microns (Run 1, stir time 4 min); 5.088 microns (Run 1, stir time 5 min); 5.182 microns (Run 2, stir time 1 min). In addition, the D90 particle size is given as 5.183 microns (Run 2, stir time 2 min); 5.182 microns (Run 2, stir time 3 min); 5.183 microns (Run 2, stir time 4 min); 5.184 microns (Run 2, stir time 5 min); 5.049 microns (Run 3, stir time 1 min); 5.049 microns (Run 3, stir time 2 min). Moreover, the D90 particle size by setting is: (Run 3, stir time 3 min) 5.048 microns; (Run 3, stir time 4 min) 5.047 microns; (Run 3, stir time 5 min) 5.048 microns; (Run 4, stir time 1 min) 5.283 microns; (Run 4, stir time 2 min) 5.282 microns; (Run 4, stir time 3 min) 5.283 microns. In addition, the D90 particle size turned out to be 5.284 microns (Run 4, stir time 4 min) and 5.281 microns (Run 4, stir time 5 min).
As to `O=C1C(O)=C([C@H]2CC[C@H](c3ccc(Cl)cc3)CC2)C(=O)c2ccccc21` [Example 4, trans-2-[4-(4-chlorophenyl)cyclohexyl]-3-hydroxy-1,4-naphthalenedione], the D90 particle size by setting is: under setting [1], 4.651 microns; (Run 1, stir time 2 min) 4.652 microns; (Run 1, stir time 3 min) 4.652 microns; (Run 1, stir time 4 min) 4.653 microns; (Run 1, stir time 5 min) 4.651 microns; (Run 2, stir time 1 min) 4.628 microns. Moreover, the D90 particle size is, setting by setting: (Run 2, stir time 2 min) 4.628 microns; (Run 2, stir time 3 min) 4.629 microns; (Run 2, stir time 4 min) 4.631 microns; (Run 2, stir time 5 min) 4.630 microns; (Run 3, stir time 1 min) 4.836 microns; (Run 3, stir time 2 min) 4.836 microns. The D90 particle size reads like this: (Run 3, stir time 3 min) 4.837 microns; (Run 3, stir time 4 min) 4.836 microns; (Run 3, stir time 5 min) 4.984 microns; (Run 4, stir time 1 min) 4.814 microns; (Run 4, stir time 2 min) 4.814 microns; (Run 4, stir time 3 min) 4.815 microns. For the same compound, the D90 particle size is, setting by setting: (Run 4, stir time 4 min) 4.814 microns; (Run 4, stir time 5 min) 4.814 microns.
Consider `O=C1C(O)=C([C@H]2CC[C@H](c3ccc(Cl)cc3)CC2)C(=O)c2ccccc21` [Example 2, trans-2-[4-(4-chlorophenyl)cyclohexyl]-3-hydroxy-1,4-naphthalenedione], for which the D90 particle size is 6.177 microns under setting [1]; 6.176 microns (Run 1, stir time 2 min); 6.175 microns (Run 1, stir time 3 min); 6.176 microns (Run 1, stir time 4 min); 6.176 microns (Run 1, stir time 5 min); 6.258 microns (Run 2, stir time 1 min). The compound further had a D90 particle size (Run 2, stir time 2 min) of 6.257 microns; a D90 particle size (Run 2, stir time 3 min) of 6.258 microns; a D90 particle size (Run 2, stir time 4 min) of 6.260 microns; a D90 particle size (Run 2, stir time 5 min) of 6.259 microns; a D90 particle size (Run 3, stir time 1 min) of 6.338 microns; a D90 particle size (Run 3, stir time 2 min) of 6.339 microns. Moreover, the D90 particle size is reported as 6.336 microns (Run 3, stir time 3 min); 6.339 microns (Run 3, stir time 4 min); 6.337 microns (Run 3, stir time 5 min); 6.572 microns (Run 4, stir time 1 min); 6.572 microns (Run 4, stir time 2 min); 6.572 microns (Run 4, stir time 3 min). Further, the D90 particle size reads like this: (Run 4, stir time 4 min) 6.569 microns; (Run 4, stir time 5 min) 6.571 microns.
Consider `O=C1C(O)=C([C@H]2CC[C@H](c3ccc(Cl)cc3)CC2)C(=O)c2ccccc21` [Example 3, trans-2-[4-(4-chlorophenyl)cyclohexyl]-3-hydroxy-1,4-naphthalenedione], for which the D90 particle size reads like this: under setting [1], 4.280 microns; (Run 1, stir time 2 min) 4.280 microns; (Run 1, stir time 3 min) 4.280 microns; (Run 1, stir time 4 min) 4.280 microns; (Run 1, stir time 5 min) 4.280 microns; (Run 2, stir time 1 min) 4.260 microns. Moreover, the D90 particle size stood at 4.260 microns (Run 2, stir time 2 min); 4.261 microns (Run 2, stir time 3 min); 4.261 microns (Run 2, stir time 4 min); 4.260 microns (Run 2, stir time 5 min); 4.124 microns (Run 3, stir time 1 min); 4.124 microns (Run 3, stir time 2 min). Besides, the D90 particle size was 4.123 microns (Run 3, stir time 3 min); 4.123 microns (Run 3, stir time 4 min); 4.125 microns (Run 3, stir time 5 min); 4.285 microns (Run 4, stir time 1 min); 4.285 microns (Run 4, stir time 2 min); 4.286 microns (Run 4, stir time 3 min). Also, the D90 particle size reads like this: (Run 4, stir time 4 min) 4.286 microns; (Run 4, stir time 5 min) 4.286 microns.

The record behind these values is US20110206770A1, “ATOVAQUONE WITH A PARTICLE SIZE DIAMETER RANGE (D90) OF GREATER THAN 3 MICRONS TO ABOUT 10 MICRONS” (Alphapharm Pty. Ltd., priority 2008, published 2011).
